This is an account of results in patent US20260125374A1, “PI3K-ALPHA INHIBITORS AND METHODS OF MAKING AND USING THE SAME” (Relay Therapeutics, Inc., priority 2021, published 2026).

This data set can be described thus: Investigation of I-3 Form A in different humidity (VH-XRPD, humidity chamber). It counts as physicochemical. As to conditions: for form after humidity chamber (XRPD): 1 week. How it is done:
According to the DVS result of I-3 Form A, two hydrate forms (a mono-hydrate, and a bis-hydrate) may exist when relative humidity is above 50% RH. Variable humidity XRPD (VH-XRPD) was investigated attempting to capture the potential hydrate(s).
To further evaluate form conversion of I-3 Form A, this salt was placed in different humidity (30% RH, 40% RH and 50% RH) chambers for 1 week.
I-3 Form A was used as starting material. One RH cycle was applied at 25° C. XRPD analysis was carried out in each specific relative humidity. Cycle: 39% RH (initial)-10% RH (2h)-40% RH (2h)-50% RH (2h)-70% RH (2h). Meanwhile, I-3 Form A was exposed to 30% RH, 40% RH and 50% RH chamber for 1 week. Samples were analyzed by XRPD using air tight container.

Consider `N#Cc1c(-c2cc(NC(=O)c3cc(F)cc(C(F)(F)F)c3)c3c(c2)C(=O)N[C@H]3c2cc(F)ccc2Cl)ccc2ncnn12` [Compound I-3], for which the “form after humidity chamber (XRPD)” value runs as follows: (30% RH) “additional peaks belongs to Form B”; (40% RH and 50% RH) “converted to I-3 Form B”. The “I-3 Form B pattern in VH-XRPD” value (50% RH, 25° C.) is “started to show up”. Also, the “form by VH-XRPD” value (70% RH, 25° C.) is reported as “fully converted to a new form, I-3 Form B”. For the same compound, the XRPD result is, setting by setting: (Chamber, 25° C., 30% RH (1 week), air tight container for XRPD) “I-3 Form A + 2Theta 17.5°”; (Chamber, 25° C., 40% RH (1 week), air tight container for XRPD) “I-3 Form B”; (Chamber, 25° C., 50% RH (1 week), air tight container for XRPD) “I-3 Form B”; (VH-XRPD, 25° C., 10% RH (2 h)) “I-3 Form A”; (VH-XRPD, 25° C., 39% RH (initial)) “I-3 Form A”; (VH-XRPD, 25° C., 40% RH (2 h)) “I-3 Form A”. Besides, the XRPD entry by setting is: (VH-XRPD, 25° C., 50% RH (2 h)) “I-3 Form A + 2Theta 17.3°”; (VH-XRPD, 25° C., 70% RH (2 h)) “I-3 Form B”.
